{"source": "paper PMC5569447", "about": "(Iranian Journal of Basic Medical Sciences, 2017)", "note": "Peptide text beside a SMILES is read from it.", "data": [{"system": "Mtb strain H37Rv ATCC 27294", "conditions": "24 h", "units": {"MABA MIC": "µM"}, "values": [{"smiles": "N=C(N)NCCC[C@H](NC(=O)[C@@H]1CCCN1)C(=O)N1CCC[C@H]1C(=O)O", "note": "[PRP] (H-Pro-Arg-Pro-OH)", "MABA MIC": ">800"}, {"smiles": "CC(C)[C@H](NC(=O)[C@@H](NC(=O)[C@@H]1CCCN1)[C@@H](C)O)C(=O)O", "note": "[PTV] (H-Pro-Thr-Val-OH)", "MABA MIC": ">800"}, {"smiles": "CC(C)[C@H](NC(=O)CN)C(=O)N1CCC[C@H]1C(=O)NCC(=O)O", "note": "[GVPG, glycine-valine-proline-glycine] (H-GVPG-OH)", "MABA MIC": 200}, {"smiles": "N[C@@H](CO)C(=O)NCC(=O)N1CCC[C@H]1C(=O)O", "note": "[SGP] (H-Ser-Gly-Pro-OH)", "MABA MIC": ">800"}, {"smiles": "N=C(N)NCCC[C@H](NC(=O)[C@@H](N)CO)C(=O)N1CCC[C@H]1C(=O)O", "note": "[SRP] (H-Ser-Arg-Pro-OH)", "MABA MIC": ">800"}, {"smiles": "N=C(N)NCCC[C@H](NC(=O)[C@@H]1CCCN1)C(=O)NCC(=O)O", "note": "[PRG] (H-Pro-Arg-Gly-OH)", "MABA MIC": ">800"}, {"smiles": "N=C(N)NCCC[C@H](NC(=O)[C@@H]1CCCN1C(=O)[C@@H](N)CCCNC(=N)N)C(=O)O", "note": "[RPR, arginine-proline-arginine] (H-Arg-Pro-Arg-OH)", "MABA MIC": 200}, {"smiles": "C[C@@H](O)[C@H](NC(=O)[C@@H](N)CCC(N)=O)C(=O)N[C@@H](CCC(N)=O)C(=O)O", "note": "[QTQ] (H-Gln-Thr-Gln-OH)", "MABA MIC": ">800"}, {"smiles": "N=C(N)NCCC[C@H](NC(=O)[C@@H]1CCCN1C(=O)[C@@H](N)CO)C(=O)O", "note": "[SPR] (H-Ser-Pro-Arg-OH)", "MABA MIC": ">800"}]}]}
